Assay results as given in paper PMC6494957 (Frontiers in Microbiology, 2019).
Like-named read-outs stand apart in the source and are kept apart here.

Key:
[1] = tested on: P. mirabilis (n = 21) clinical isolates from otitis externa cases in dogs; test: MIC/MBC and checkerboard, canine otitis externa isolates; format: cell-based, Proteus mirabilis; conditions: for MIC50 / MIC90: Proteus mirabilis
Excerpt: Escherichia coli ATCC 25922, E. coli ATCC 11229, P. aeruginosa ATCC 27853, P. aeruginosa PA01, Pseudomonas putida ATCC 17428, P. mirabilis ATCC 43071, K. pneumoniae ATCC 13883, A. baumannii ATCC 19606, and A. baumannii ATCC 12457 were used for preliminary susceptibility testing and combination experiments. S. aureus ATCC 29213 and S. pneumoniae ATCC 49619 were used as internal quality controls. A variety of bacterial organisms from both human and canine infections were investigated in this study (n = 119 isolates in total). Twenty-eight clinical Acinetobacter spp. isolates were obtained from cases of human skin and soft tissue infections, including 18 Acinetobacter baumannii and 10 A. calcoaceticus, kindly provided by a person (Institute of Medical and Veterinary Science, South Australia). […] Ninety-one clinical isolates were obtained from cases of canine otitis externa, including seven methicillin-susceptible S. pseudintermedius (MSSP), 13 multidrug- and methicillin-resistant S. pseudintermedius (MRSP) ([Saputra et al., 2017]), 20 beta-haemolytic Streptococcus spp., 30 P. aeruginosa (10 of them resistant to gentamicin and 21 P. mirabilis isolates). These isolates were obtained from the bacterial collection of the national survey of antimicrobial resistance in animals conducted in Australia. Swab samples from dogs with signs of otitis externa were collected by veterinarians and submitted to government, private or university diagnostic laboratories throughout Australia. After routine bacterial identification and the removal of confidential information, the participating veterinary diagnostic laboratories submitted the bacteria and their clinical information to PC2 Laboratories, Australian Centre for Antimicrobial Resistance Ecology, School of Animal and Veterinary Sciences, University of Adelaide, Roseworthy Campus, Roseworthy, SA, Australia, for further study. Thus, animal ethics approval was not required in this study. These organisms were identified to species level using biochemical testing and MALDI-TOF mass spectrometry (Bruker, Preston, VIC, Australia).
(§1) The MIC for ampicillin or gentamicin against each isolate was determined for each test to serve as an internal quality control. The MICs of isolates were determined by visual reading and using an EnSpire Multimode Plate Reader 2300 atA600nm.
Briefly, 10 μl aliquots from each duplicate well from the MIC assays (starting from the MIC for each compound) were inoculated onto a sheep blood agar (SBA) plate and incubated at 37°C.
(§2) Briefly, antimicrobial stock solutions for robenidine and PMBN were prepared at a concentration of 12.8 mg/ml in DMSO. […] A 1 μl aliquot of the first compound from each combination was dispensed along the abscissa (from row A to G) of the 96-well microplate, while the second compound was dispensed along the ordinate (from column 12 to column 3) using an electronic multichannel pipette followed by 89 μl of LB broth. Each well of the plate was inoculated with an aliquot of 10 μl bacterial suspension at a concentration of 1-5 × 10^6 colony forming units (CFU) per ml. Subsequently, the plate was incubated at 37°C for 24 h. The fractional inhibitory concentration index (FICI) described the results of the combinations, and was calculated utilizing the following formula:
(§3) DRI = MIC of drug alone/MIC of drug in combination

E. coli ATCC 11229 = test: microbe, parasite or virus in culture; conditions: for MIC: Escherichia coli
Method: as §1, §2, §3

P. putida ATCC 17428 = test: microbe, parasite or virus in culture; conditions: for MIC: Pseudomonas putida
Method: as §1, §2, §3

P. mirabilis ATCC 43071 = test: microbe, parasite or virus in culture; conditions: for MIC: Proteus mirabilis
Method: as §1, §2, §3

[2] = tested on: A. calcoaceticus (human clinical isolate); test: microbe, parasite or virus in culture; conditions: for MIC: Acinetobacter calcoaceticus
Method: as §1, §2, §3

A. baumannii ATCC 12457 = test: microbe, parasite or virus in culture; conditions: for MIC: Acinetobacter baumannii
Method: as §1, §2, §3

A. baumannii ATCC 19606 = test: microbe, parasite or virus in culture; conditions: A. baumannii ATCC 19606
Method: as §1, §2, §3

[3] = concentration of the labelled component

O=C(O)CN(CCN(CC(=O)O)CC(=O)O)CC(=O)O [EDTA, ethylenediaminetetraacetic acid]
MBC/MIC row, EDTA in combination [1]: 750 µg/mL | MBC/MIC row, EDTA in combination (mM in parentheses) [1]: 2 mM | MIC range, single drug (mM in parentheses) [1]: 0.5 to 2 mM | MIC50, in combination of EDTA and ROB (mM in parentheses) ([1]; EDTA component): 1 mM | MIC90, in combination of EDTA and ROB (mM in parentheses) ([1]; EDTA component): 1 mM | MIC range, in combination of EDTA and ROB (mM in parentheses) ([1]; EDTA component): 0.5 to 1 mM | MIC50 ([1]; canine otitis externa, read-out: MIC50, single drug): 380 µg/mL | MIC90 ([1]; canine otitis externa, read-out: MIC90, single drug): 750 µg/mL | MIC50 ([1]; read-out: MIC50, single drug (mM in parentheses)): 1 mM | MIC90 ([1]; read-out: MIC90, single drug (mM in parentheses)): 2 mM | MIC range, single drug ([1]; canine otitis externa): 190 to 750 µg/mL | MIC50, in combination of EDTA and ROB [1, 3]: 380 µg/mL | MIC90, in combination of EDTA and ROB [1, 3]: 380 µg/mL | MIC range, in combination of EDTA and ROB [1, 3]: 190 to 380 µg/mL | DRI EDTA:ROB (E. coli ATCC 11229; E. coli ATCC 11229, DRI of the labelled component): 4 | MIC in combination EDTA:ROB (mM in parentheses) (E. coli ATCC 11229; E. coli ATCC 11229, EDTA component): 0.6 mM | MIC in combination EDTA:ROB (E. coli ATCC 11229; E. coli ATCC 11229, concentration of the labelled component): 228 µg/mL | MIC (E. coli ATCC 11229; ATCC11229, read-out: MIC, single drug): 950 µg/mL | MIC (E. coli ATCC 11229; ATCC11229, read-out: MIC, single drug (mM in parentheses)): 2.5 mM | DRI EDTA:ROB (P. putida ATCC 17428; P. putida ATCC 17428, DRI of the labelled component): 2 | MIC in combination EDTA:ROB (mM in parentheses) (P. putida ATCC 17428; P. putida ATCC 17428, EDTA component): 2.5 mM | MIC in combination EDTA:ROB (P. putida ATCC 17428; P. putida ATCC 17428, concentration of the labelled component): 950 µg/mL | MIC (P. putida ATCC 17428; ATCC17428, read-out: MIC, single drug): 1900 µg/mL | MIC (P. putida ATCC 17428; ATCC17428, read-out: MIC, single drug (mM in parentheses)): 5 mM | DRI EDTA:ROB (P. mirabilis ATCC 43071; P. mirabilis ATCC 43071, DRI of the labelled component): 1 | MIC in combination EDTA:ROB (mM in parentheses) (P. mirabilis ATCC 43071; P. mirabilis ATCC 43071, EDTA component): 0.6 mM | MIC in combination EDTA:ROB (P. mirabilis ATCC 43071; P. mirabilis ATCC 43071, concentration of the labelled component): 228 µg/mL | MIC (P. mirabilis ATCC 43071; ATCC43071, read-out: MIC, single drug): 228 µg/mL | MIC (P. mirabilis ATCC 43071; ATCC43071, read-out: MIC, single drug (mM in parentheses)): 0.6 mM | DRI EDTA:ROB ([2]; A. calcoaceticus human clinical isolate, DRI of the labelled component): 1 | MIC in combination EDTA:ROB (mM in parentheses) ([2]; A. calcoaceticus human clinical isolate, EDTA component): 0.6 mM | MIC in combination EDTA:ROB ([2]; A. calcoaceticus human clinical isolate, concentration of the labelled component): 228 µg/mL | MIC ([2]; read-out: MIC, single drug): 228 µg/mL | MIC ([2]; read-out: MIC, single drug (mM in parentheses)): 0.6 mM | DRI EDTA:ROB (A. baumannii ATCC 12457; A. baumannii ATCC 12457, DRI of the labelled component): 2 | MIC in combination EDTA:ROB (mM in parentheses) (A. baumannii ATCC 12457; A. baumannii ATCC 12457, EDTA component): 0.25 mM | MIC in combination EDTA:ROB (A. baumannii ATCC 12457; A. baumannii ATCC 12457, concentration of the labelled component): 95 µg/mL | MIC (A. baumannii ATCC 12457; ATCC12457, read-out: MIC, single drug): 190 µg/mL | MIC (A. baumannii ATCC 12457; ATCC12457, read-out: MIC, single drug (mM in parentheses)): 0.5 mM | DRI EDTA:ROB (A. baumannii ATCC 19606; DRI of the labelled component): 2 | MIC in combination EDTA:ROB (mM in parentheses) (A. baumannii ATCC 19606; EDTA component): 0.5 mM
